Data from a melting point compilation (Tetko et al.; mined from patent text by program, amines drawn as free bases though some values may be those of a salt).

melting point [°C] | Structure (SMILES)
205 to 207 | CC1Oc2cc(Cl)ccc2/C1=N\NC(=O)Nc1ccc(C(F)(F)F)cc1 (configuration not stated)
122 to 124 | CCCCCC(Cc1cnc(SCCC)n1Cc1ccccc1Cl)C(=O)O (configuration not stated)
122 to 125 | Cc1ccn(-c2ccc(C(=O)c3cccc4c3Nc3ncccc3CN4)c(F)c2)n1
182 | CCCN(CCC)C(=O)CN(C(=O)CNC(=O)Nc1cccc(C)c1)c1ccccc1
65 to 66 | CCCCNc1ccc(CCNc2ncnc(CC)c2C(=O)OCC)cc1
182 to 183 | CC(=O)N1c2ccccc2-c2c([N+](=O)[O-])cnn2C1(C)C
105 | CC(C)(C)OC(=O)NCC(=O)N1[C@@H](C(=O)OC(C)(C)C)C[C@H](C(=O)O)[C@H]1c1ccccc1 (racemic)
138 to 140 | COC(=O)c1ccc(C[C@@H]2COc3ccc(OCc4ccc5ccccc5n4)cc3[C@H]2O)cc1 (relative stereo)
198 to 200 | Cc1oc(-c2ccccc2)nc1CCOc1ccc(C[C@@H](C(=O)O)N2CCN(S(=O)(=O)c3ccc(F)cc3)CC2)cc1
91 to 93 | ON=C(c1ccccc1)c1cc(F)cc(F)c1
147 to 148 | CCC1(C)OC(c2ccc(S(C)(=O)=O)cc2)=C(c2ccc(C(C)=O)cc2)C1=O (configuration not stated)
185 to 188 | COc1cc(C(=O)N(C(C)C)C2CCCCC2)ccc1Cn1cccc2nc(-c3cccnc3)nc1-2
89 to 91 | COC(=O)C[C@@](O)(CCc1ccc(O)cc1)C(C)C
52 | CCOC(=O)C(=Cc1ccc(-c2cccc(NC)c2)cc1)OCC
96 | O=C(c1ccc(OCC2CO2)cc1)c1cccc2[nH]ccc12 (configuration not stated)
138 to 140 | CN1C(=O)N(C[C@H](C(=O)NOCc2ccccc2)[C@@H](CC2CCCC2)C(=O)N2CCCCC2)C(=O)C1(C)C
91 to 93 | CC(CS(=O)(=O)C(C)c1ccccc1)C(=O)O (configuration not stated)
180 to 181 | O=c1[nH]c(NCCCNc2ncccc2Cl)ncc1Cc1ccc(Cl)cc1
90 to 105 | COc1ccc(C(C)COc2nc(N)c3ncn(C4OC(CO)C(O)C4O)c3n2)cc1 (configuration not stated)
125 to 126 | CCC(=O)NC1=NN(c2ccc(F)cc2)C(C)C1 (configuration not stated)
178 to 180 | CCc1nc(OC)c(NC(=O)N2CCN(c3cc(C)cc(C)c3)CC2)cc1C(=O)Nc1cc(CO)cc(Nc2c3ccccc3nc3ccccc23)c1
110 to 112 | CCOC(=O)CC1Cc2ccc(O)cc2Cc2ccccc21 (configuration not stated)
88.5 to 90.5 | Cn1c2ccccc2c(=O)c2ccc(Cl)n21

melting point [°C] | Structure (SMILES)
102 to 104 | CC(C)CC(C)c1cc(C(C(F)(F)F)C(F)(F)F)ccc1NC(=O)c1c(C(F)(F)F)nn(C)c1Cl (configuration not stated)
140 | O=C(CCOCc1ccccc1)Nc1ccc(C(=O)Nc2ccccc2[N+](=O)[O-])cc1
> 250 | COCn1cc(C2=C(c3cn(C)c4cc([N+](=O)[O-])ccc34)C(=O)NC2=O)c2ccccc21
71 to 72 | Cc1oc(-c2ccccc2)nc1CCc1noc(CCl)n1
157 to 159 | COc1cc(C(=O)Cc2ccc(O)cc2)c(O)cc1O
182 to 183 | COc1ccc(-c2c(C(=O)c3ccccc3)c(CBr)nc3cc(OC)c(OC)cc23)cc1OC
97 to 100 | CC1(C)COC(c2ccccc2-c2ccc(CO)cc2)=N1
100 to 102 | CCN1c2ncc(CCCc3ccccc3)cc2C(=O)N(C)c2cccnc21
189 to 190 | O=C(CCC1CCN(Cc2ccccc2)CC1)c1ccc(Nc2ncnc3c2CCC3O)cc1 (configuration not stated)
232 to 234 | Cc1c(NC(=O)c2ccc(-c3ccc(F)cc3)cc2)ccc2cc(CN3CCC(CCCC(N)=O)CC3)cnc12
279 to 281 | Cc1nc2c3c(c(CO)cc2n1C)CCC(c1ccccc1)O3 (configuration not stated)
160 | COc1cc(-c2cccc3ccccc23)nc(N)n1
126 to 128 | C#CCc1c(C)nc2c(NCc3ccccc3C)cccn12
76 to 77 | CC1=CC(=O)C(C)(N=Nc2ccc3ccccc3c2)O1 (configuration not stated)
146 to 147 | c1ccc(CCc2n[nH]c(NCCCCOc3cccc(CN4CCCCC4)c3)n2)cc1
102 to 103 | CCCC[C@H](NC(=O)[C@H](CC(C)C)NC(=O)c1ccccc1F)C(=O)CSCc1ccco1
53 to 54 | CCCCCCCCCCCCCCCCOc1cccc(O)c1C
110 to 114 | COc1ccnc(C(=O)N[C@H]2COC(=O)[C@H](Cc3ccccc3)[C@@H](O)[C@H](C)OC2=O)c1OCc1ccccc1
130 to 133 | Cc1oc(-c2ccccc2)nc1CCOc1ccc(C=O)c2ccccc12
98 to 99 | CCCNC(=O)Nc1ccccc1C(=O)OCC
89.4 | CCC[C@H]1CC[C@H](CCc2ccc(-c3ccc(C#N)cc3F)cc2)CC1
225 to 226 | Cc1cccc(-c2ccc3c(c2)c2c(n3Cc3ccccc3)COC(=O)C2=O)c1
171 to 173 | COc1cc(C(C)=O)ccc1OCCCN1CCC(c2n[nH]c3ccccc23)CC1

The remaining lines, values behind:

Structure (SMILES) | melting point [°C]
Cn1c(C#N)c(Br)n(-c2ccc(Cl)cc2)c1=O | 185
COc1ccc(-c2nnc(C)nc2-c2ccc(OC)cc2)cc1 | 109 to 113
O=C(NCC(c1ccccc1)c1ccccc1)N1CCC(C(=O)O)(c2ccccc2)CC1 | 173 to 174
COc1cc2nc(N)nc(-c3ccccc3I)c2cc1OC | 225 to 230
Cc1ccc2oc(NC(CC3CCCCC3)c3ccccn3)nc2c1 (configuration not stated) | 80 to 86
O=C(O)C1=Cc2cc(-c3ccc(C(F)(F)F)cc3)ccc2OCC1 | 273 to 276
CCC1=Cc2cc(OCC(=O)O)c(Cl)c(Cl)c2C1=O | 205 to 207
CN(C)c1ccc(NC(=O)N(CCC2=CCCCC2)C[C@H]2CC[C@H](CN(CCC3=CCCCC3)C(=O)Nc3ccc(N(C)C)cc3)CC2)cc1 | 152 to 155
CCC(CC)Nc1c(NCc2ccc(Cl)c(Cl)c2)c(=O)c1=O | 268 to 269
CC(C)(C(=O)C=Cc1ccc(F)cc1)C1OCCO1 | 76
Clc1cnc(Sc2cccs2)nc1 | 65
CCOC(=O)C1=CC2(CCC1S(=O)(=O)Nc1ccc(F)cc1Cl)OCCO2 (configuration not stated) | 117 to 119
CC(C)(S)CN1CCC(CCO)CC1 | 42
Cc1cccc(NC(=O)NC2N=C(C3CC3)c3cccc(C)c3N(CC(=O)N3CCCCCCC3)C2=O)c1 (configuration not stated) | 178 to 179
C=C(C)C(=O)OCc1c(Br)c(Br)c(Br)c(Br)c1COC(=O)C(=C)C | 64 to 66
Cn1nc(-c2cccc(F)c2)n(C)c1=S | 126 to 128
COC(=O)c1nc(-c2ccc(Cl)c(OC)c2F)c(F)c(N)c1Cl | 169 to 170
N#Cc1ccccc1-c1ccc2[nH]ncc2c1 | 163 to 170
Nc1ccc(C#Cc2ccc(OC3CN4CCC3CC4)nn2)cc1 (configuration not stated) | 212 to 220
COP(=O)(CCc1cccc2c1O[C@H]1C[C@@H](O)[C@H](CO)[C@@H]21)OC | 106 to 107
NC(=O)[C@H]1CCCN2CC[C@@H]3c4cc(Cl)ccc4N[C@@H]3[C@H]12 (racemic) | 270
COc1ccc(Cl)c(NC(=O)N(C)c2cc(Nc3ccc(N4CCN(C)CC4)cc3)ncn2)c1Cl | 162 to 163
COc1ccc(Cl)c(Oc2c(C=O)nc(N3CCOCC3)nc2NS(=O)(=O)c2ccc(C(C)(C)C)cc2)c1 | 235 to 236
CC(C)(C)OC(=O)N1CCC(N2CCN(CCCN3CCCCC3)C2=C(C#N)C#N)CC1 | 141 to 143
COC1=C(OC)C(=O)C2=C(CC(CCCCCCCC(=O)O)(C(=O)O)C2)C1=O | 119 to 123
CCc1cc(C(C)(C)C)c(OP2OCC(C)(C)CO2)c(C(C)(C)C)c1CC(=O)O | 134 to 136

Structure (SMILES) | melting point [°C]
Clc1cc(Cl)nc(N2CCSCC2)n1 | 79.5 to 81.5
CCOc1ccc(-c2ccc3c(c2)C=C(C(=O)Nc2ccc(CN(C)C4CCOCC4)cc2)CCN3C)cc1 | 150 to 152
O=C(O)c1cccc(-n2ccc(-c3ccc(OC(F)(F)F)cc3)n2)c1 | 191 to 194
COC(=S)CCc1cc(C(C)(C)C)cc(C(C)(C)C)c1O | 55 to 55.5
COc1cccc(N(C)CCNC(C)=O)c1 | 69 to 71
Cn1nc(Oc2ccc([N+](=O)[O-])c(N)c2)cc1C(F)(F)F | 91 to 92
COc1cc2cn(-c3nccs3)nc2cc1OC | 184 to 187
COC(=O)c1ccc2ccc(C#N)cc2c1 | 136
CC(C)(C(=O)C(Oc1ccc(Cl)cc1Cl)n1ccnc1)C(Cl)Cl (configuration not stated) | 125 to 126
CCc1cc2c(s1)SCCc1cc(=O)n(-c3ccc(OC)cc3)nc1-2 | 141 to 143
CCC(O)(c1ccc(OCc2cccc(C)n2)cc1)c1cc(C)ccc1C (configuration not stated) | 107 to 108
CC1(C)OC(c2ccc(S(N)(=O)=O)cc2)=C(I)C1=O | 179 to 180
COc1nc(Cl)cnc1NC(=O)OCC(C)C | 90 to 91
CN1C(=O)C2C3C=CC(CC3)C2(c2ccc(Cl)c(Cl)c2)C1=O (configuration not stated) | 125 to 128
CC(C)=CC(=S)Nc1ccccc1 | 175
CN1C(=O)CC[C@]2(C)c3ccc(-c4cc(F)c([N+](=O)[O-])cc4F)cc3CC[C@@H]12 | 130 to 140
O=C(O)C(Cc1ccccc1)Oc1ccc(-c2ccc(-c3c(Cc4ccccc4)oc4ccccc34)cc2)cc1Br (configuration not stated) | 80 to 82
CCOC(=O)c1nnc2ccc(NC3=CC(=O)CC(C)(C)C3)cc2c1O | 274
CCCN(CCC)[C@H]1Cc2ccc(OCC)cc2[C@@H]1O | 74 to 75
Cc1cccc(C2(CC(=O)O)CNC(=O)C2)c1 (configuration not stated) | 152 to 154
CCCCCC(=O)N1C(=O)CC[C@H]1C(=O)O | 85 to 90
COc1cccc2c1nnn2C1CCCCC1 | 118 to 120
COc1cc2c(cc1-c1cccnc1)-c1c(-c3cncs3)c3c(n1CC2)C(=O)N(C(C)(C)C)CCCOC3 | 200 to 201
CC(=O)N(Nc1ccc(Cl)cc1F)c1c(C#N)cnc2cc(O)ccc12 | 182 to 191
CC(C)Oc1ccc(Nc2ccc(N=C=O)cc2C(F)(F)F)cc1C(F)(F)F | 102 to 105
